Measured values published in PMC7802075 (ACS Infectious Diseases, 2020).

molecular target: T1, LmjIPCS (inositol phosphorylceramide synthase from L. major) (Leishmania major, UniProt E9AFX2); assay: biochemical; format: biochemical; design: inhibition: dose or concentration left out as unconfirmed; details: not given
T1 sequence (E9AFX2 1-338): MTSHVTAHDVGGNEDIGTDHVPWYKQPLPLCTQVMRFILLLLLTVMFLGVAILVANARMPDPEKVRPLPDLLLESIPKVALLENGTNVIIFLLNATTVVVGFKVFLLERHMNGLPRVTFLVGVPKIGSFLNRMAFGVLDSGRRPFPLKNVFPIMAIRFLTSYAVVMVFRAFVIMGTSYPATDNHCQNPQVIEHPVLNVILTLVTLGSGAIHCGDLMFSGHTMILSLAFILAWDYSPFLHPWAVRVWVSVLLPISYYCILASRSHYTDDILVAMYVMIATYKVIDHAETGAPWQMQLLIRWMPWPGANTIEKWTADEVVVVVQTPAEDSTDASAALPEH

Row | SMILES | 20mM inhibition LmjIPCS
1 | COc1ccc(CCN(C)CCCC(C#N)(c2ccc(OC)c(OC)c2)C(C)C)cc1OC (stereo not shown) | 42%
2 | CC(=O)N[C@@H]1[C@@H](O)[C@H](O)[C@@H](CO)O[C@H]1O [ACETYLGLUCOSAMINE] | -19%
3 | CC(=O)N1CCN(c2ccc(OCC3COC(Cn4ccnc4)(c4ccc(Cl)cc4Cl)O3)cc2)CC1 (stereo not shown) [KETOCONAZOLE] | 69%
4 | CC1(C)O[C@@H]2C[C@H]3[C@@H]4CCC5=CC(=O)C=C[C@]5(C)[C@@]4(F)[C@@H](O)C[C@]3(C)[C@]2(C(=O)CO)O1 [TRIAMCINOLONE ACETONIDE] | 37%
5 | Cc1nnc(SCC2=C(C(=O)O)N3C(=O)[C@@H](NC(=O)Cn4cnnn4)[C@H]3SC2)s1 [CEFAZOLIN] | 35%
6 | N[C@@H](Cc1c[nH]c2ccccc12)C(=O)O [TRYPTOPHAN] | 34%
7 | NC[C@H]1O[C@H](O[C@H]2[C@H](O)[C@@H](O[C@H]3O[C@H](CO)[C@@H](O)[C@H](N)[C@H]3O)[C@H](N)C[C@@H]2N)[C@H](O)[C@@H](O)[C@@H]1O [KANAMYCIN] | 26%
8 | CNNC [1,2-DIMETHYLHYDRAZINE] | 15%

same assay, conditions: NINDS set screen, single concentration printed as 20mM

Row | 20mM inhibition LmjIPCS | SMILES
9 | 47% | O=C1NCC2(CCN(CCc3ccccc3)CC2)O1 [FENSPIRIDE]
10 | 65% | COc1ccc(C(Cl)=C(c2ccc(OC)cc2)c2ccc(OC)cc2)cc1 [CHLOROTRIANISENE]
11 | 67% | CC(=O)Oc1ccccc1C(=O)Oc1ccccc1C(=O)O [DIPLOSALSALATE]
12 | 55% | CCCNC(=O)NS(=O)(=O)c1ccc(Cl)cc1 [CHLORPROPAMIDE]

Row | SMILES | 20mM inhibition LmjIPCS
13 | Cc1cc(C(C)(C)C)cc(C)c1CC1=NCCN1 [XYLOMETAZOLINE] | 62%

same assay, conditions: NINDS set screen; read-out: inhibition LmjIPCS

Row | SMILES | inhibition
14 | CC(=O)N1CCCC1C(=O)O (stereo not shown) [N-ACETYLPROLINE] | -1.28%
15 | CC(=O)NC1CCSC1=O (stereo not shown) [CITIOLONE] | -8%

Next, values leading:

Row | inhibition | SMILES
16 | 15% | O=C(CCc1ccc(O)cc1)c1c(O)cc(O)cc1O[C@@H]1O[C@H](CO)[C@@H](O)[C@H](O)[C@H]1O [PHLORIDZIN]
17 | -2.28% | O=c1[nH]c(=O)n([C@H]2C[C@H](O)[C@@H](CO)O2)cc1F [FLOXURIDINE]
18 | 31% | CCN(CCO)CCCC(C)Nc1ccnc2cc(Cl)ccc12 (stereo not shown) [HYDROXYCHLOROQUINE]
19 | 0.419% | Cc1c(NC(C)C)c(=O)n(-c2ccccc2)n1C [RAMIFENAZONE]
20 | 23% | Oc1c(I)cc(I)c2cccnc12 [IODOQUINOL]
21 | -0.337% | CC(=O)Nc1ccc(OC(=O)c2ccccc2O)cc1 [ACETAMINOSALOL]

same assay, conditions: read-out: 20mM inhibition LmjIPCS

Row | SMILES | inhibition at 20000 µM
22 | CN[C@@H]1[C@@H](O)[C@@H](O[C@@H]2[C@@H](O)[C@H](O[C@H]3O[C@H]([C@@H](C)O)[C@@H](O)[C@H](O)[C@H]3N)[C@@H](N)C[C@H]2N)OC[C@]1(C)O [GENETICIN] | 13%
23 | CN(C)CCC=C1c2ccccc2C=Cc2ccccc21 [CYCLOBENZAPRINE] | -2.37%
24 | COC(=O)[C@H](c1ccccc1Cl)N1CCc2sccc2C1 [CLOPIDOGREL] | 32%
25 | Cc1cccc(Nc2ccncc2S(=O)(=O)NC(=O)NC(C)C)c1 [TORSEMIDE] | 29%
26 | Cc1onc(-c2c(Cl)cccc2Cl)c1C(=O)N[C@@H]1C(=O)N2[C@@H]1SC(C)(C)[C@@H]2C(=O)O [DICLOXACILLIN] | 2.55%
27 | CC(=O)OC(C)C[N+](C)(C)C (stereo not shown) [METHACHOLINE CHLORIDE] | -18%
28 | COc1cc(C(C)=O)cc(OC)c1O [ACETOSYRINGONE] | 21%
29 | Cc1ccc(S(=O)(=O)NC(=O)NN2CCCCCC2)cc1 [TOLAZAMIDE] | -5%
30 | CC(=O)OCC(=O)[C@@]12OC(C)(C)O[C@@H]1C[C@H]1[C@@H]3C[C@H](F)C4=CC(=O)C=C[C@]4(C)[C@@]3(F)[C@@H](O)C[C@@]12C [FLUOCINONIDE] | 6%
31 | c1ccc(/N=N/c2ccccc2)cc1 [AZOBENZENE] | 2.28%
32 | NCCc1ccc(O)c(O)c1 [DOPAMINE] | -1.1%
33 | CC(=O)Oc1c(C)c(C)c2c(c1C)CCC(C)(CCC[C@H](C)CCC[C@H](C)CCCC(C)C)O2 (stereo partly drawn) [alpha-TOCOPHERYL ACETATE] | -0.425%
34 | COc1cc2c3cc1Oc1c(OC)c(OC)cc4c1[C@@H](Cc1ccc(O)c(c1)Oc1ccc(cc1)C[C@@H]3N(C)CC2)N(C)CC4 [BERBAMINE] | 18%
35 | Cc1ncc([N+](=O)[O-])n1CC(C)O (stereo not shown) [SECNIDAZOLE] | 12%
36 | C[C@@H]1O[C@@H](Oc2c(-c3ccc(O)c(O)c3)oc3cc(O)cc(O)c3c2=O)[C@H](O)[C@H](O)[C@H]1O [QUERCITRIN] | 6.42%
37 | CN(N=O)C(=O)N[C@H]1C(O)O[C@H](CO)[C@@H](O)[C@@H]1O (mixture of isomers) [STREPTOZOSIN] | 16%
38 | CC[C@@H](C(=O)O)[C@@H]1O[C@@H]([C@@H](C)[C@H](O)[C@H](C)C(=O)[C@H](CC)[C@H]2O[C@]3(C=C[C@@H](O)[C@]4(CC[C@@](C)([C@H]5CC[C@](O)(CC)[C@H](C)O5)O4)O3)[C@H](C)C[C@@H]2C)[C@@H](C)C[C@@H]1C [NARASIN] | -0.161%
39 | COc1cc([C@@H]2c3cc4c(cc3[C@H](O)[C@H]3COC(=O)[C@H]23)OCO4)cc(OC)c1OC [PODOFILOX] | 21%
40 | CCCc1nc(C(C)(C)O)c(C(=O)OCc2oc(=O)oc2C)n1Cc1ccc(-c2ccccc2-c2nnn[nH]2)cc1 [OLMESARTAN MEDOXOMIL] | 21%

same assay, conditions: read-out: inhibition LmjIPCS

Row | inhibition | SMILES
41 | 5.47% | CC(=O)O[C@H]1C[C@@]2(C)[C@@H](C[C@@H](O)[C@H]3[C@@]4(C)CC[C@@H](O)[C@@H](C)[C@@H]4CC[C@@]32C)/C1=C(\CCC=C(C)C)C(=O)O [FUSIDIC ACID]
42 | 4% | CCn1cc(C(=O)O)c(=O)c2cc(F)c(N3CCNC(C)C3)c(F)c21 (stereo not shown) [LOMEFLOXACIN]
43 | 4% | COc1c(C)c2c(c(O)c1C/C=C(\C)CCC(=O)O)C(=O)OC2 [MYCOPHENOLIC ACID]
44 | 17% | CCN(CC)CCNC(=O)c1cc(Br)c(N)cc1OC [BROMOPRIDE]
45 | 18% | COc1cc(O)c2c(c1)C(=O)c1cc(C)cc(O)c1C2=O [PHYSCION]
46 | 21% | N[C@@H](Cc1ccc(O)c(O)c1)C(=O)O [LEVODOPA]
47 | 7% | C=CCc1ccc(O)c(OC)c1 [EUGENOL]
48 | 7% | CCCCC1(COC(=O)CCC(=O)O)C(=O)N(c2ccccc2)N(c2ccccc2)C1=O [SUXIBUZONE]
49 | 10% | C[C@H]1[C@H](C)CC[C@]2(C(=O)O)CC[C@]3(C)C(=CC[C@@H]4[C@@]5(C)C[C@@H](O)[C@H](O)[C@@](C)(CO)[C@@H]5[C@H](O)C[C@]43C)[C@H]12 [MADECASSIC ACID]
50 | 20% | COc1ccc(C[C@H](N)C(=O)N[C@H]2[C@@H](O)[C@H](n3cnc4c(N(C)C)ncnc43)O[C@@H]2CO)cc1 [PUROMYCIN]

same assay, conditions: screening of NINDS set, sheet Screen 1; read-out: inhibition LmjIPCS

Row | inhibition | SMILES
51 | 6% | S=c1[nH]cnc2nc[nH]c12 [MERCAPTOPURINE]
52 | 2.64% | O=C(COc1ccc(Cl)cc1)N1CCN(Cc2ccc3c(c2)OCO3)CC1 [FIPEXIDE]
53 | 6.6% | CC1(C)OC(=O)NC1=O [DIMETHADIONE]
54 | 3.24% | Cc1onc(-c2ccccc2)c1-c1ccc(S(N)(=O)=O)cc1 [VALDECOXIB]
55 | 4% | CC(=O)Oc1cccc(O)c1 [RESORCINOL MONOACETATE]
